Laboratory results from ChEMBL document CHEMBL1142808, “O-Methylglucogalloyl esters: synthesis and evaluation of their antimycotic activity” (2005).
Values after ≈ are worked out from the molar mass of the structure shown.

What was measured:
Format in all cases: functional
Candida albicans [1] = test: Minimum inhibitory concentration (mixture of alpha and beta) against Candida albicans DBVPG 6133
Nakaseomyces glabratus [2] = test: Minimum inhibitory concentration (mixture of alpha and beta) against Candida glabrata DBVPG 3828
[3] = Minimum inhibitory concentration (mixture of alpha and beta) against Issatchenkia orientalis DBVPG 6782; conditions: Pichia kudriavzevii
[4] = Minimum inhibitory concentration against Issatchenkia orientalis DBVPG 6782; conditions: Pichia kudriavzevii
Nakaseomyces glabratus [5] = test: Minimum inhibitory concentration against Candida glabrata DBVPG 3828
Nakaseomyces glabratus [6] = test: Minimum inhibitory concentration in association with mixture of alpha/beta O-methylgluco-2,3-digalloyl ester (49.8 µg/mL) against Candida glabrata DBVPG 3828
Candida albicans [7] = test: Minimum inhibitory concentration in association with methyl gallate (36.8 µg/mL) against Candida albicans DBVPG 6133
Nakaseomyces glabratus [8] = test: Minimum inhibitory concentration in association with gallic acid (34.0 µg/mL) against Candida glabrata DBVPG 3828
[9] = Minimum inhibitory concentration in association with gallic acid (34.0 µg/mL) against Issatchenkia orientalis DBVPG 6782; conditions: Pichia kudriavzevii
Candida albicans [10] = test: Minimum inhibitory concentration against Candida albicans DBVPG 6133
Candida albicans [11] = test: Minimum inhibitory concentration in association with mixture of alpha/beta O-methylgluco-2,3-digalloyl ester (49.8 µg/mL) against Candida albicans DBVPG 6133
Candida albicans [12] = test: Minimum inhibitory concentration in association with gallic acid (34.0 µg/mL) against Candida albicans DBVPG 6133
[13] = Minimum inhibitory concentration in association with methyl gallate (36.8 µg/mL) against Issatchenkia orientalis DBVPG 6782; conditions: Pichia kudriavzevii
[14] = Minimum inhibitory concentration in association with mixture of alpha/beta O-methylgluco-2,3-digalloyl ester (49.8 µg/mL) against Issatchenkia orientalis DBVPG 6782; conditions: Pichia kudriavzevii
Nakaseomyces glabratus [15] = test: Minimum inhibitory concentration in association with methyl gallate (36.8 µg/mL) against Candida glabrata DBVPG 3828

Row | MIC (Candida albicans [1]) [µg/mL] | MIC (Nakaseomyces glabratus [2]) [µg/mL] | MIC [3] [µg/mL] | Structure (SMILES) | MIC [4] [µg/mL] | MIC (Nakaseomyces glabratus [5]) [µg/mL] | MIC (Nakaseomyces glabratus [6]) [µg/mL] | MIC (Candida albicans [7]) [µg/mL] | MIC (Nakaseomyces glabratus [8]) [µg/mL] | MIC [9] [µg/mL] | MIC (Candida albicans [10]) [µg/mL] | MIC (Candida albicans [11]) [µg/mL] | MIC (Candida albicans [12]) [µg/mL] | MIC [13] [µg/mL] | MIC [14] [µg/mL] | MIC (Nakaseomyces glabratus [15]) [µg/mL]
1 | 1940 (≈ 3890 µM) | > 4670 | > 4670 | COC1O[C@H](CO)[C@@H](O)[C@H](OC(=O)c2cc(O)c(O)c(O)c2)[C@H]1OC(=O)c1cc(O)c(O)c(O)c1 (stereo not given in full) | – | – | – | – | – | – | – | – | – | – | – | –
2 | – | – | – | C[C@@H]1[C@H](O)[C@@H](C)/C=C/C=C/C=C/C=C/C=C/C=C/C=C/[C@H](O[C@@H]2O[C@H](C)[C@@H](O)[C@H](N)[C@@H]2O)C[C@@H]2O[C@](O)(C[C@@H](O)C[C@@H](O)[C@H](O)CC[C@@H](O)C[C@@H](O)CC(=O)O[C@H]1C)C[C@H](O)[C@H]2C(=O)O [AMPHOTERICIN B] | > 100 | 1.06 (≈ 1.15 µM) | 0.05 (≈ 0.0541 µM) | 0.09 (≈ 0.0974 µM) | 1 (≈ 1.08 µM) | 8 (≈ 8.66 µM) | 1.06 (≈ 1.15 µM) | 0.05 (≈ 0.0541 µM) | 0.09 (≈ 0.0974 µM) | 45 (≈ 48.7 µM) | 2.05 (≈ 2.22 µM) | 0.09 (≈ 0.0974 µM)
